Data reported in patent US20130196984A1, “3-AMINO-5-PHENYL-56-DIHYDRO-2H-[1,4]OXAZINES” (Siena Biotech S.p.A., priority 2009, published 2013).
Structures can show the parent of a compound that is named as a salt.

Assays:
BACE2 [1] = biological target: T1, BACE2 (Homo sapiens, UniProt Q9Y5Z0); test: Assay A: binding studies using SPR based methods, immobilised BACE2; conditions: CM5 chip, immobilised BACE2 enzyme ectodomain, acetate buffer pH 4.6, 4% DMSO
T1 construct: BACE2 enzyme ectodomain (derived from plasmid “pET17b-T7-hu proBACE2”); T7 (N); made in house
T1 sequence (Q9Y5Z0 63-473 limits assumed): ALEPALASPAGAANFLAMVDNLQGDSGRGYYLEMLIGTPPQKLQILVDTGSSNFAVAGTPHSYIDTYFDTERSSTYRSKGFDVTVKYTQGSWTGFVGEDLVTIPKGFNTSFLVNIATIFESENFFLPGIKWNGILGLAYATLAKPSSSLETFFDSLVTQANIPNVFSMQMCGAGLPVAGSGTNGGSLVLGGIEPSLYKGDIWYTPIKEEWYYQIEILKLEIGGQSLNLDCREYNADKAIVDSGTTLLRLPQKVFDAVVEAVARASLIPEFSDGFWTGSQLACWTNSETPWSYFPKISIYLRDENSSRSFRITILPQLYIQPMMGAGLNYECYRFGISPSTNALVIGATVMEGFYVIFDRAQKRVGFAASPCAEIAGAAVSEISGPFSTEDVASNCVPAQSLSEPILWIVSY

BACE1 [2] = biological target: T2, BACE1 (Homo sapiens, UniProt P56817); test: Cellular Abeta-lowering assay; type: cell-based; set-up: endogenous in cells; host or cells: HEK293 stably transfected with human APP695 wt; conditions: HEK293 cells stably transfected with human APP wt (APP695), Aβ40 ELISA of supernatant after 18-20 hrs
T2 sequence (P56817 46-501): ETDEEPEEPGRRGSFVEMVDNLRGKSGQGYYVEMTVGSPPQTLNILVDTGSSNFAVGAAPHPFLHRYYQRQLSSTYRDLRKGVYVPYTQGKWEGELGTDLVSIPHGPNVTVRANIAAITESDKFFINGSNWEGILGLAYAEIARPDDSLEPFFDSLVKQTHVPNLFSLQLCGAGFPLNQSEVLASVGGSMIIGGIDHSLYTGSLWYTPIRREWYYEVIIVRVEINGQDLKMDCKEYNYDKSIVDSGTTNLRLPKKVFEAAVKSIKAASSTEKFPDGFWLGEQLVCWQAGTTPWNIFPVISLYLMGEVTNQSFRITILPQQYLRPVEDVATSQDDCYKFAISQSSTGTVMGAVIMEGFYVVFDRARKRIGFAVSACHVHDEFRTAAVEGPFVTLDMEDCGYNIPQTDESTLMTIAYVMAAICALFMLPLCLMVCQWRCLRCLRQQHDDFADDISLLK

BACE1 [3] = biological target: T2, BACE1; test: Assay A: binding studies using SPR based methods, immobilised BACE1; set-up: 6his-tagged full length BACE 1 expressed in SF9 cells; 6His; made in house; host or cells: SF9 insect cells; conditions: CM5 chip, immobilised 6his-tagged full length BACE 1, acetate buffer pH 4.6, 4% DMSO;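 also: KD from a 1:1 kinetic fit (koff/kon) of real-time association and dissociation curves, or for fast binders from end-of-association equilibrium responses plotted against log concentration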
BACE2 [4] = biological target: T3, BACE2 (Rattus norvegicus, UniProt Q6IE75); test: Assay for BACE inhibition by measuring cellular TMEM27 cleavage; type: cell-based; conditions: INS-TMEM27 (INS1e-derived) cells, ELISA of shed human TMEM27 in supernatant;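 also: inhibitor added 2 h before doxycycline-induced hTMEM27 expression, supernatant collected after further 46 h, endogenous BACE2 activity read as reduced TMEM27 shedding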
T3 construct: endogenous cellular BACE2 in the Ins1e rat cell line; endogenous in cells; host or cells: INS-TMEM27 (INS1e-derived rat cell line with doxycycline-inducible full-length hTMEM27)
T3 sequence (Q6IE75 63-514): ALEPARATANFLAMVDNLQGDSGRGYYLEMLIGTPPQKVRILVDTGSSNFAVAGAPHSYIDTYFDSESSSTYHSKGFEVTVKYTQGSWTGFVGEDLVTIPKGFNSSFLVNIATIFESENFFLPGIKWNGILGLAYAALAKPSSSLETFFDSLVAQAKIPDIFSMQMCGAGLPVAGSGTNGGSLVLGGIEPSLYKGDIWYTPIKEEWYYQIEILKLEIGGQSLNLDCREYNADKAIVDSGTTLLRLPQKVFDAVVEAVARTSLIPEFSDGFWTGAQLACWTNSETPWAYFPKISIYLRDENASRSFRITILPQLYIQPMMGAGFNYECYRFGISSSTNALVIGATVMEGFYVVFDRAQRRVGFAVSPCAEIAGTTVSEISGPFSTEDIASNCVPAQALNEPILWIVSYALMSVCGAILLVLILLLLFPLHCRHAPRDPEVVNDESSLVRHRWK

## C[C@@]1(c2cc(NC(=O)C3CC3(F)F)ccc2F)COCC(N)=N1 (mixture of isomers) [Example 53, (RS)-2,2-difluoro-cyclopropanecarboxylic acid [3-((R)-5-amino-3-methyl-3,6-dihydro-2H-[1,4]oxazin-3-yl)-4-fluoro-phenyl]-amide]
BACE2 [1]
  Kd: 1220 nM
BACE1 [2]
  IC50: 620 nM
BACE1 [3]
  Kd: 3950 nM
BACE2 [4]
  IC50: 910 nM

## CC1(C)OCC(N)=N[C@]1(C)c1cc(NC(=O)C2CC2(F)F)ccc1F (mixture of isomers) [Example 56, (RS)-2,2-difluoro-cyclopropanecarboxylic [3-((R)-5-amino-2,2,3-trimethyl-3,6-dihydro-2H-[1,4]oxazin-3-yl)-4-fluoro-phenyl]-amide]
BACE2 [1]
  Kd: 1720 nM
BACE1 [2]
  IC50: 1190 nM
BACE1 [3]
  Kd: 10800 nM
BACE2 [4]
  IC50: > 10000 nM

## CC(F)C(=O)Nc1ccc(F)c([C@]2(C)COCC(N)=N2)c1 (mixture of isomers) [Example 87, (RS)—N-[3-((R)-5-amino-3-methyl-3,6-dihydro-2H-[1,4]oxazin-3-yl)-4-fluoro-phenyl]-2-fluoro-propionamide formate]
BACE2 [1]
  Kd: 477 nM
BACE1 [2]
  IC50: 120 nM
BACE1 [3]
  Kd: 474 nM
BACE2 [4]
  IC50: 52 nM

## CC1(c2cccc(NC(=O)c3ncc(Cl)cc3Cl)c2)COCC(N)=N1 (racemic) [Example 2, (RS)-3,5-dichloro-pyridine-2-carboxylic acid [3-(5-amino-3-methyl-3,6-dihydro-2H-[1,4]oxazin-3-yl)-phenyl]-amide]
BACE2 [1]
  Kd: 9 nM
BACE1 [2]
  IC50: 16 nM
BACE1 [3]
  Kd: 50 nM
BACE2 [4]
  IC50: 48 nM

## CC1(c2cccc(NC(=O)c3ccc(Cl)cc3Cl)c2)COCC(N)=N1 (racemic) [Example 4, (RS)—N-[3-(5-amino-3-methyl-3,6-dihydro-2H-[1,4]oxazin-3-yl)-phenyl]-2,4-dichloro-benzamide]
BACE2 [1]
  Kd: 381 nM
BACE1 [2]
  IC50: 570 nM
BACE1 [3]
  Kd: 1720 nM
BACE2 [4]
  IC50: 950 nM

## CC1(c2cccc(NC(=O)c3cccc(Cl)c3)c2)COCC(N)=N1 (racemic) [Example 6, (RS)—N-[3-(5-amino-3-methyl-3,6-dihydro-2H-[1,4]oxazin-3-yl)-phenyl]-3-chloro-benzamide]
BACE2 [1]
  Kd: 230 nM
BACE1 [2]
  IC50: 1530 nM
BACE1 [3]
  Kd: 6900 nM
BACE2 [4]
  IC50: 660 nM

## CC1(c2cccc(NC(=O)c3ccc(Cl)s3)c2)COCC(N)=N1 (racemic) [Example 8, (RS)-5-chloro-thiophene-2-carboxylic acid [3-(5-amino-3-methyl-3,6-dihydro-2H-[1,4]oxazin-3-yl)-phenyl]-amide]
BACE2 [1]
  Kd: 106 nM
BACE1 [2]
  IC50: 327 nM
BACE1 [3]
  Kd: 1490 nM
BACE2 [4]
  IC50: 360 nM

## Cc1cc(C(=O)Nc2cccc(C3(C)COCC(N)=N3)c2)c(C)s1 (racemic) [Example 9, (RS)-2,5-dimethyl-thiophene-3-carboxylic acid [3-(5-amino-3-methyl-3,6-dihydro-2H-[1,4]oxazin-3-yl)-phenyl]-amide]
BACE2 [1]
  Kd: 63 nM
BACE1 [2]
  IC50: 58 nM
BACE1 [3]
  Kd: 717 nM
BACE2 [4]
  IC50: 43 nM

## Cc1cc(C(=O)Nc2cccc(C3(C)COCC(N)=N3)c2)c(C)o1 (racemic) [Example 13, (RS)-2,5-dimethylfuran-3-carboxylic acid [3-(5-amino-3-methyl-3,6-dihydro-2H-[1,4]oxazin-3-yl)-phenyl]-amide]
BACE2 [1]
  Kd: 33 nM
BACE1 [2]
  IC50: 24 nM
BACE1 [3]
  Kd: 445 nM
BACE2 [4]
  IC50: 51 nM

## CC1(c2cc(NC(=O)c3ccc(Cl)cc3)ccc2F)COCC(N)=N1 (racemic) [Example 19, (RS)—N-[3-(5-amino-3-methyl-3,6-dihydro-2H-[1,4]oxazin-3-yl)-4-fluoro-phenyl]-4-chloro-benzamide]
BACE2 [1]
  Kd: 98 nM
BACE1 [2]
  IC50: 130 nM
BACE1 [3]
  Kd: 394 nM
BACE2 [4]
  IC50: 837 nM

## NC1=NC(c2cc(NC(=O)c3ccc(Cl)cn3)ccc2F)(C2CC2)COC1 (racemic) [Example 22, (RS)-5-Chloro-pyridine-2-carboxylic acid [3-(5-amino-3-cyclopropyl-3,6-dihydro-2H-[1,4]oxazin-3-yl)-4-fluoro-phenyl]-amide]
BACE2 [1]
  Kd: 19 nM
BACE1 [2]
  IC50: 11 nM
BACE1 [3]
  Kd: 140 nM
BACE2 [4]
  IC50: 11 nM

## C[C@@]1(c2cc(NC(=O)c3ccc(Cl)cn3)ccc2F)CO[C@@H](Cc2ccccc2)C(N)=N1 (racemic) [Example 29, 5-Chloro-pyridine-2-carboxylic acid [3-((3R,6S)— and (3S,6R)-5-amino-6-benzyl-3-methyl-3,6-dihydro-2H-[1,4]oxazin-3-yl)-4-fluoro-phenyl]-amide]
BACE2 [1]
  Kd: 6 nM
BACE1 [2]
  IC50: 50 nM
BACE1 [3]
  Kd: 58 nM
BACE2 [4]
  IC50: 140 nM

## CC1(c2cc(NC(=O)c3cc(-c4ccco4)on3)ccc2F)COCC(N)=N1 (racemic) [Example 75, 5-Furan-2-yl-isoxazole-3-carboxylic acid [3-((RS)-5-amino-3-methyl-3,6-dihydro-2H-[1,4]oxazin-3-yl)-4-fluoro-phenyl]-amide]
BACE2 [1]
  Kd: 2150 nM
BACE1 [2]
  IC50: 110 nM
BACE1 [3]
  Kd: 261 nM
BACE2 [4]
  IC50: > 10000 nM

## C[C@@]1(c2cc(NC(=O)C(F)C(F)(F)F)ccc2F)COCC(N)=N1 (mixture of isomers) [Example 89, formate]
BACE1 [2]
  IC50: 500 nM
BACE1 [3]
  Kd: 805 nM
BACE2 [4]
  IC50: 820 nM

## C[C@@]1(c2cc(NC(=O)c3ccc(Cl)cn3)ccc2F)CO[C@H](Cc2ccccc2)C(N)=N1 [Example 28, 5-Chloro-pyridine-2-carboxylic acid [3-((3R,6R)— and (3S,6)-5-amino-6-benzyl-3-methyl-3,6-dihydro-2H-[1,4]oxazin-3-yl)-4-fluoro-phenyl]-amide]
BACE2 [1]
  Kd: 11 nM
BACE1 [2]
  IC50: 19 nM
BACE1 [3]
  Kd: 71 nM
BACE2 [4]
  IC50: 58 nM

## C[C@@]1(c2cc(NC(=O)c3ncc(Cl)cn3)ccc2F)COCC(N)=N1 [Example 35, 5-chloro-pyrimidine-2-carboxylic acid [3-((R)-5-amino-3-methyl-3,6-dihydro-2H-[1,4]oxazin-3-yl)-4-fluoro-phenyl]-amide]
BACE2 [1]
  Kd: 4 nM
BACE1 [2]
  IC50: 15 nM
BACE1 [3]
  Kd: 28 nM
BACE2 [4]
  IC50: 16 nM

## C[C@@]1(c2cc(NC(=O)c3coc(C(F)(F)F)c3)ccc2F)COCC(N)=N1 [Example 36, 5-trifluoromethyl-furan-3-carboxylic acid [3-((R)-5-amino-3-methyl-3,6-dihydro-2H-[1,4]oxazin-3-yl)-4-fluoro-phenyl]-amide]
BACE2 [1]
  Kd: 955 nM
BACE1 [2]
  IC50: 550 nM
BACE1 [3]
  Kd: 2260 nM
BACE2 [4]
  IC50: 120 nM

## C[C@@]1(c2cc(NC(=O)c3ncccc3F)ccc2F)COCC(N)=N1 [Example 37, 3-fluoro-pyridine-2-carboxylic acid [3-((R)-5-amino-3-methyl-3,6-dihydro-2H-[1,4]oxazin-3-yl)-4-fluoro-phenyl]-amide]
BACE2 [1]
  Kd: 20 nM
BACE1 [2]
  IC50: 240 nM
BACE1 [3]
  Kd: 283 nM
BACE2 [4]
  IC50: 17 nM

## C[C@@]1(c2cc(NC(=O)c3ncc(C(F)(F)F)cc3Cl)ccc2F)COCC(N)=N1 [Example 38, 3-chloro-5-trifluoromethyl-pyridine-2-carboxylic acid [3-((R)-5-amino-3-methyl-3,6-dihydro-2H-[1,4]oxazin-3-yl)-4-fluoro-phenyl]-amide]
BACE2 [1]
  Kd: 32 nM
BACE1 [2]
  IC50: 21 nM
BACE1 [3]
  Kd: 39 nM
BACE2 [4]
  IC50: 44 nM

## Cc1nc(C(=O)Nc2ccc(F)c([C@]3(C)COCC(N)=N3)c2)co1 [Example 39, 2-methyl-oxazole-4-carboxylic acid [3-((R)-5-amino-3-methyl-3,6-dihydro-2H-[1,4]oxazin-3-yl)-4-fluoro-phenyl]-amide]
BACE2 [1]
  Kd: 8 nM
BACE1 [2]
  IC50: 28 nM
BACE1 [3]
  Kd: 45 nM
BACE2 [4]
  IC50: 130 nM

## C[C@@]1(c2cc(NC(=O)c3ccn(C(F)F)n3)ccc2F)COCC(N)=N1 [Example 40, 1-difluoromethyl-1H-pyrazole-3-carboxylic acid [3-((R)-5-amino-3-methyl-3,6-dihydro-2H-[1,4]oxazin-3-yl)-4-fluoro-phenyl]-amide]
BACE2 [1]
  Kd: 2 nM
BACE1 [2]
  IC50: 13 nM
BACE1 [3]
  Kd: 15 nM
BACE2 [4]
  IC50: 2 nM
